Test results reported in patent US6372774B1, “Derivatives of N-phenylpyrazoles” (Rhone-Poulenc Agriculture Ltd., priority 1985, dated 2002).
Each block holds one compound with its values, some of them ahead of it.

Experiments:
[1] = tested on: Plutella xylostella (Diamond-back Moth); test: whole plant or invertebrate; format: in vivo; details: foliar; for mortality at 500 ppm: read-out: mortality of larvae of Plutella xylostella
From the text: (§1) One or more dilutions of the compounds to be tested were made in 50% aqueous acetone.
(§2) a) Test species: Plutella xylostella (Diamond-back Moth) and Phaedon cochleariae (Mustard Beetle)
(§3) Turnip leaf discs were set in agar in petri-dishes and infected with 10 larvae (2nd instar Plutella or 3rd instar Phaedon). Four replicate dishes were assigned to each treatment and were sprayed under a Potter Tower with the appropriate test dilution. Four or five days after treatment the dishes were removed from the constant temperature (25° C.) room in which they had been held and the mean percentage mortalities of larvae were determined.

[2] = tested on: Megoura viciae (Vetch Aphid); test: Test 3 b): spray of infested tic bean plants, Megoura viciae; format: in vivo; details: for mortality at 50 ppm: Megoura viciae, read-out: mortality of Megoura viciae; for score from 4 replicates, Megoura viciae: Test 3 method (b), application of 50 ppm, score 0-3 per replicate, maximum 12; for Megoura score/12 50 ppm: Tables 1 and 3, sum of scores 0-3 of 4 replicates
Description: as §1
b) Megoura viciae (Vetch Aphid)
Potted tic bean plants previously infected with mixed stages of Megoura were sprayed to run-off using a laboratory turntable sprayer. Treated plants were held in a greenhouse for 2 days and were assessed for aphid mortality using a scoring system, judging the response in comparison with plants treated with 50% aqueous acetone alone, as controls.

[3] = tested on: Phaedon cochleariae (Mustard Beetle); test: Test 3 a): leaf disc spray test, Phaedon cochleariae larvae; format: in vivo; details: Phaedon cochleariae, foliar; for mortality at 5 ppm: read-out: mortality of larvae of Phaedon cochleariae; for pest or weed control at 10 ppm: read-out: Phaedon % m 10 ppm
From the text: as §1, §2, §3

melting point: 97 to 100 °C
Compound: Cc1c(C(F)(F)F)nn(-c2c(Cl)cc(C(F)(F)F)cc2Cl)c1N [Compound 236, 5-Amino-1-(2,6-dichloro-4-trifluoromethylphenyl)-4-methyl-3-trifluoromethylpyrazole]

melting point: 160 to 162 °C
Compound: CCOC=Nc1c(C#N)c(C(F)(F)F)nn1-c1c(Cl)cc(C(F)(F)F)cc1Cl [Compound 135, 4-Cyano-1-(2,6-dichloro-4-trifluoromethylphenyl)-5-ethoxymethyleneamino-3-trifluoromethylpyrazole]

melting point: 88 to 90 °C
Compound: FC(F)c1cn(-c2c(Cl)cc(C(F)(F)F)cc2Cl)nc1C(F)(F)F [Compound 235, 1-(2,6-Dichloro-4-trifluoromethylphenyl)-4-difluoromethyl-3-trifluoromethylpyrazole]

melting point: 133.5 °C
Compound: Cc1nn(-c2c(Cl)cc(C(F)(F)F)cc2Cl)c(N)c1SC#N [Compound 231, 5-Amino-1-(2,6-dichloro-4-trifluoromethylphenyl)-3-methyl-4-thiocyanatopyrazole]

melting point: 139 to 141 °C
Compound: N#Cc1c(CF)nn(-c2c(Cl)cc(C(F)(F)F)cc2Cl)c1N [Compound 142, 5-Amino-4-cyano-1-(2,6-dichloro-4-trifluoromethylphenyl)-3-fluoromethylpyrazole]

melting point: 49 to 50 °C
Compound: N#CSc1c(C(F)(F)F)nn(-c2c(Cl)cc(C(F)(F)F)cc2Cl)c1N [Compound 230, 5-Amino-1-(2,6-dichloro-4-trifluoromethylphenyl)-4-thiocyanato-3-trifluoromethylpyrazole]

melting point: 156 °C
Compound: Cc1nn(-c2c(Cl)cc(C(F)(F)F)cc2Cl)c(N)c1SC(Cl)(Cl)Cl [Compound 233, 5-Amino-1-(2,6-dichloro-4-trifluoromethylphenyl)-3-methyl-4-trichloromethylthiopyrazole]

melting point: 177 to 179 °C
Compound: N#Cc1c(C(F)(F)F)nn(-c2c(Cl)cc(C(F)(F)F)cc2Cl)c1C(=O)O [Compound 209, 5-Carboxy-4-cyano-1-(2,6-dichloro-4-trifluoromethylphenyl)-3-trifluoromethylpyrazole]

melting point: 100 to 102 °C
Compound: CCCSc1c(C)nn(-c2c(Cl)cc(C(F)(F)F)cc2Cl)c1N [Compound 227, 5-Amino-1-(2,6-dichloro-4-trifluoromethylphenyl)-4-n-propylthio-3-methylpyrazole]

melting point: 134 °C
Compound: CC(=O)c1cn(-c2c(Cl)cc(C(F)(F)F)cc2Cl)nc1C(F)(F)F [Compound 215, 4-Acetyl-1-(2,6-dichloro-4-trifluoromethylphenyl)-3-trifluoromethylpyrazole]

More lines, now with the values behind:

Compound: CCCOC=Nc1c(C#N)c(C)nn1-c1c(Cl)cc(C(F)(F)F)cc1Cl [Compound 119, 4-Cyano-1-(2,6-dichloro-4-trifluoromethylphenyl)-3-methyl-5-propoxymethyleneaminopyrazole]
melting point: 77 to 79 °C

Compound: N#Cc1nn(-c2c(Cl)cc(C(F)(F)F)cc2Cl)c(Br)c1[N+](=O)[O-]
melting point: 147 to 150 °C

Compound: N#Cc1nn(-c2c(Cl)cc(C(F)(F)F)cc2Cl)c(NC(=O)C(Cl)Cl)c1C#N
melting point: 186 to 187 °C

Compound: C[Si](C)(C)c1c([N+](=O)[O-])c(C(F)(F)F)nn1-c1c(Cl)cc(C(F)(F)F)cc1Cl [Compound 210, 1-(2,6-Dichloro-4-trifluoromethylphenyl)-4-nitro-3-trifluoromethyl-5-trimethylsilylpyrazole]
mortality at 500 ppm [1]: 100% | mortality at 50 ppm [2]: 100% | score from 4 replicates, Megoura viciae [2]: 12 | mortality at 5 ppm [3]: 100%

Compound: N#Cc1c(C(F)(F)F)nn(-c2c(Cl)cc(OC(F)(F)F)cc2Cl)c1N [Compound 144, 5-Amino-4-cyano-1-(2,6-dichloro-4-trifluoromethoxyphenyl)-3-trifluoromethylpyrazole]
mortality at 500 ppm [1]: 100% | mortality at 50 ppm [2]: 100% | score from 4 replicates, Megoura viciae [2]: 12 | mortality at 5 ppm [3]: 100%

Compound: Cc1nn(-c2c(Cl)cc(OC(F)(F)F)cc2Cl)c(N)c1S(C)(=O)=O [Compound 163, 5-Amino-1-(2,6-dichloro-4-trifluoromethoxyphenyl)-4-methanesulphonyl-3-methylpyrazole]
melting point: 180 to 181 °C

Compound: N#Cc1nn(-c2c(Cl)cc(C(F)(F)F)cc2Cl)c(Br)c1[S+]([O-])C(F)(F)F (centres unmarked)
melting point: 147 to 148 °C

Compound: CCOC(C)=Nc1c(C#N)c(C)nn1-c1c(Cl)cc(C(F)(F)F)cc1Cl [Compound 168, 4-Cyano-1-(2,6-dichloro-4-trifluoromethylphenyl)-5-(1-ethoxyethylideneamino)-3-methylpyrazole]
melting point: 50 to 53 °C

Compound: N#Cc1c(C(F)(F)F)nn(-c2c(Cl)c(F)c(C(F)(F)F)c(F)c2Cl)c1N [Compound 167, 5-Amino-4-cyano-1-(2,6-dichloro-3,5-difluoro-4-trifluoromethylphenyl)-3-trifluoromethylpyrazole]
melting point: 176 to 177 °C

Compound: CNc1c(C#N)c(C#N)nn1-c1c(Cl)cc(C(F)(F)F)cc1Cl
melting point: 165 to 166 °C

Compound: CN(C)c1c([S+]([O-])C(F)(F)F)c(C#N)nn1-c1c(Cl)cc(C(F)(F)F)cc1Cl (centres unmarked)
melting point: 154 to 161 °C

Compound: CCSc1c(C(F)(F)F)nn(-c2c(Cl)cc(C(F)(F)F)cc2Cl)c1N [Compound 228, 5-Amino-1-(2,6-dichloro-4-trifluoromethylphenyl)-4-ethylthio-3-trifluoromethylpyrazole]
mortality at 500 ppm [1]: 100% | mortality at 50 ppm [2]: 100% | score from 4 replicates, Megoura viciae [2]: 12 | mortality at 5 ppm [3]: 100%

Compound: N#Cc1nn(-c2c(Cl)c(F)c(C(F)(F)F)c(F)c2Cl)c(N)c1C#N
melting point: 245 to 247 °C

Compound: N#Cc1c(C(F)(F)F)nn(-c2c(Cl)cc([S+]([O-])C(F)(F)F)cc2Cl)c1N (centres unmarked) [Compound 219, 5-Amino-4-cyano-1-(2,6-dichloro-4-trifluoromethylsulphinylphenyl)-3-trifluoromethylpyrazole]
mortality at 500 ppm [1]: 100% | mortality at 50 ppm [2]: 100% | score from 4 replicates, Megoura viciae [2]: 12 | mortality at 5 ppm [3]: 100%

Compound: N#Cc1nn(-c2c(F)c(F)c(C(F)(F)F)c(F)c2Cl)c(N)c1C#N [Compound 157, 5-Amino-1-(2-chloro-3,5,6-trifluoro-4-trifluoromethylphenyl)-3,4-dicyanopyrazole]
melting point: 242 to 243 °C

Compound: CCS(=O)(=O)c1c(C)nn(-c2c(Cl)cc(C(F)(F)F)cc2Cl)c1N [Compound 222, 5-Amino-1-(2,6-dichloro-4-trifluoromethylphenyl)-4-ethylsulphonyl-3-methylpyrazole]
melting point: 193 °C

Compound: N#Cc1c(Cl)nn(-c2c(Cl)cc(C(F)(F)F)cc2Cl)c1N [Compound 114, 5-Amino-3-chloro-4-cyano-1-(2,6-dichloro-4-trifluoromethylphenyl)pyrazole]
mortality at 500 ppm [1]: 100% | Megoura score/12 50 ppm [2]: 9 | pest or weed control at 10 ppm [3]: 100%

Compound: N#Cc1c(C(F)(F)F)nn(-c2c(Cl)cc(S(=O)(=O)C(F)(F)F)cc2Cl)c1[N+](=O)[O-] [Compound 234, 4-Cyano-1-(2,6-dichloro-4-trifluoromethanesulphonylphenyl)-5-nitro-3-trifluoromethylpyrazole]
melting point: 168 to 169 °C

Compound: COC=Nc1c(C#N)c(C)nn1-c1c(Cl)cc(C(F)(F)F)cc1Cl [Compound 118, 4-Cyano-1-(2,6-dichloro-4-trifluoromethylphenyl)-3-methyl-5-methoxymethyleneaminopyrazole]
pest or weed control at 500 ppm ([1]; read-out: Plutella % m 500 ppm): 73% | Megoura score/12 50 ppm [2]: 10 | pest or weed control at 10 ppm [3]: 45%

Compound: N#Cc1c(C(F)(F)F)nn(-c2c(Cl)cc(C(F)(F)F)cc2Cl)c1I [Compound 151, 4-Cyano-1-(2,6-dichloro-4-trifluoromethylphenyl)-5-iodo-3-trifluoromethylpyrazole]
mortality at 500 ppm [1]: 100% | Megoura score/12 50 ppm [2]: 11 | pest or weed control at 10 ppm [3]: 100%

Compound: N#Cc1cn(-c2c(Cl)cc(C(F)(F)F)cc2Cl)nc1C(F)(F)F [Compound 150, 4-Cyano-1-(2,6-dichloro-4-trifluoromethylphenyl)-3-trifluoromethylpyrazole]
mortality at 500 ppm [1]: 100% | Megoura score/12 50 ppm [2]: 10 | pest or weed control at 10 ppm [3]: 100%

Compound: CS(=O)(=O)c1c(C#N)nn(-c2c(Cl)cc(C(F)(F)F)cc2Cl)c1N [Compound 214, 5-Amino-3-cyano-1-(2,6-dichloro-4-trifluoromethylphenyl)-4-methanesulphonylpyrazole]
mortality at 500 ppm [1]: 100% | mortality at 50 ppm [2]: 100% | score from 4 replicates, Megoura viciae [2]: 12 | mortality at 5 ppm [3]: 100%

Compound: N#Cc1c(C(F)(F)C(F)(F)F)nn(-c2c(Cl)cc(C(F)(F)F)cc2Cl)c1N [Compound 127, 5-Amino-4-cyano-1-(2,6-dichloro-4-trifluoromethylphenyl)-3-pentafluoroethylpyrazole]
mortality at 100 ppm ([1]; read-out: Plutella % mortality at 100 ppm): 100% | Megoura score/12 50 ppm [2]: 10 | pest or weed control at 10 ppm [3]: 100%

Compound: N#Cc1c(C(F)F)nn(-c2c(Cl)cc(C(F)(F)F)cc2Cl)c1N [Compound 129, 5-Amino-1-(2,6-dichloro-4-trifluoromethylphenyl)-4-cyano-3-difluoromethylpyrazole]
mortality at 500 ppm [1]: 100% | mortality at 50 ppm [2]: 100% | score from 4 replicates, Megoura viciae [2]: 12 | pest or weed control at 10 ppm [3]: 100%
